Values quoted from earlier work as cited in patent publication US20240016938A1, “METHODS FOR INCREASING THE BIOAVAILABILITY OF NUCLEOSIDE MEDICINAL AGENTS” (ZOGENIX MDS, INC., priority 2022, published 2024).

Conditions: 600-mg oral dose; food intake immediately before oral dosing; cited from earlier work

Cc1cn([C@@H]2C[C@@H](O)[C@H](CO)O2)c(=O)[nH]c1=O [telbivudine, 3-L-2-deoxythymidine]
absorption as measured by Cmax, Tmax, AUC(0-t), and AUC(0-infinity), fed vs fasting: not altered by food intake
